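GI50 is the concentration that inhibits growth by half. TGI marks complete inhibition of growth.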
Legend:
Experiment in all cases: NCI anticancer screen, dose series, 384-well format
T-47D breast = test system: T-47D breast
DU-145 prostate = test system: DU-145 prostate
BT-549 breast = test system: BT-549 breast
MDA-MB-468 breast = test system: MDA-MB-468 breast
CCRF-CEM leukemia = test system: CCRF-CEM leukemia
HT29 colon = test system: HT29 colon
SK-MEL-2 melanoma = test system: SK-MEL-2 melanoma
SNB-19 CNS = test system: SNB-19 CNS
KM12 colon = test system: KM12 colon
ACHN renal = test system: ACHN renal
SW-620 colon = test system: SW-620 colon
OVCAR-4 ovarian = test system: OVCAR-4 ovarian
OVCAR-8 ovarian = test system: OVCAR-8 ovarian
MALME-3M melanoma = test system: MALME-3M melanoma
UO-31 renal = test system: UO-31 renal
MCF7 breast = test system: MCF7 breast
HCT-15 colon = test system: HCT-15 colon
786-0 renal = test system: 786-0 renal
M14 melanoma = test system: M14 melanoma
HOP-92 NSCLC = test system: HOP-92 NSCLC
K-562 leukemia = test system: K-562 leukemia
PC-3 prostate = test system: PC-3 prostate
TK-10 renal = test system: TK-10 renal
MDA-MB-435 melanoma = test system: MDA-MB-435 melanoma
HCT-116 colon = test system: HCT-116 colon
A549 NSCLC = test system: A549 NSCLC
RPMI-8226 leukemia = test system: RPMI-8226 leukemia
UACC-257 melanoma = test system: UACC-257 melanoma
U251 glioblastoma = test system: U251 glioblastoma
NCI-H23 lung = test system: NCI-H23 lung
MOLT-4 leukemia = test system: MOLT-4 leukemia
SK-OV-3 ovarian = test system: SK-OV-3 ovarian
RXF 393 renal = test system: RXF 393 renal
SF-539 CNS = test system: SF-539 CNS
OVCAR-3 ovarian = test system: OVCAR-3 ovarian
MDA-MB-231 breast = test system: MDA-MB-231 breast
UACC-62 melanoma = test system: UACC-62 melanoma
NCI-H522 lung = test system: NCI-H522 lung
NCI/ADR-RES ovarian = test system: NCI/ADR-RES ovarian
HOP-62 NSCLC = test system: HOP-62 NSCLC
IGROV1 ovarian = test system: IGROV1 ovarian
SNB-75 CNS = test system: SNB-75 CNS
NCI-H322M lung = test system: NCI-H322M lung
HS 578T breast = test system: HS 578T breast
EKVX NSCLC = test system: EKVX NSCLC
NCI-H226 lung = test system: NCI-H226 lung
LOX IMVI melanoma = test system: LOX IMVI melanoma
SN12C renal = test system: SN12C renal
A498 renal = test system: A498 renal
HL-60(TB) leukemia = test system: HL-60(TB) leukemia
SK-MEL-28 melanoma = test system: SK-MEL-28 melanoma
CAKI-1 renal = test system: CAKI-1 renal
SF-268 CNS = test system: SF-268 CNS
SF-295 CNS = test system: SF-295 CNS
OVCAR-5 ovarian = test system: OVCAR-5 ovarian
COLO 205 colon = test system: COLO 205 colon
HCC-2998 colon = test system: HCC-2998 colon
NCI-H460 NSCLC = test system: NCI-H460 NSCLC
SK-MEL-5 melanoma = test system: SK-MEL-5 melanoma

## Cn1c(CCCC(=O)O)nc2cc(N(CCCl)CCCl)ccc21
T-47D breast
  GI50: > 100 µM
  TGI: > 100 µM
DU-145 prostate
  GI50: > 100 µM
  TGI: > 100 µM
BT-549 breast
  GI50: 57 µM
  TGI: > 100 µM
MDA-MB-468 breast
  GI50: 11.9 µM
  TGI: 32.8 µM
CCRF-CEM leukemia
  GI50: 17.9 µM
  TGI: 32.4 µM
HT29 colon
  GI50: > 100 µM
  TGI: > 100 µM
SK-MEL-2 melanoma
  GI50: > 100 µM
  TGI: > 100 µM
SNB-19 CNS
  GI50: > 100 µM
  TGI: > 100 µM
KM12 colon
  GI50: > 100 µM
  TGI: > 100 µM
ACHN renal
  GI50: 68.3 µM
  TGI: > 100 µM
SW-620 colon
  GI50: 72.7 µM
  TGI: > 100 µM
OVCAR-4 ovarian
  GI50: > 100 µM
  TGI: > 100 µM
OVCAR-8 ovarian
  GI50: 69.8 µM
  TGI: > 100 µM
MALME-3M melanoma
  GI50: > 100 µM
  TGI: > 100 µM
UO-31 renal
  GI50: > 100 µM
  TGI: > 100 µM
MCF7 breast
  GI50: 71.3 µM
  TGI: > 100 µM
HCT-15 colon
  GI50: > 100 µM
  TGI: > 100 µM
786-0 renal
  GI50: 90.6 µM
  TGI: > 100 µM
M14 melanoma
  GI50: 55.5 µM
  TGI: > 100 µM
HOP-92 NSCLC
  GI50: > 100 µM
  TGI: > 100 µM
K-562 leukemia
  GI50: > 100 µM
  TGI: > 100 µM
PC-3 prostate
  GI50: > 100 µM
  TGI: > 100 µM
TK-10 renal
  GI50: > 100 µM
  TGI: > 100 µM
MDA-MB-435 melanoma
  GI50: > 100 µM
  TGI: > 100 µM
HCT-116 colon
  GI50: 61.3 µM
  TGI: > 100 µM
A549 NSCLC
  GI50: > 100 µM
  TGI: > 100 µM
RPMI-8226 leukemia
  GI50: 39.8 µM
  TGI: > 100 µM
UACC-257 melanoma
  GI50: > 100 µM
  TGI: > 100 µM
U251 glioblastoma
  GI50: 47.1 µM
  TGI: > 100 µM
NCI-H23 lung
  GI50: 60.3 µM
  TGI: > 100 µM
MOLT-4 leukemia
  GI50: 3.2 µM
  TGI: 10.3 µM
SK-OV-3 ovarian
  GI50: > 100 µM
  TGI: > 100 µM
RXF 393 renal
  GI50: 41.7 µM
  TGI: > 100 µM
SF-539 CNS
  GI50: 50.4 µM
  TGI: > 100 µM
OVCAR-3 ovarian
  GI50: > 100 µM
  TGI: > 100 µM
MDA-MB-231 breast
  GI50: > 100 µM
  TGI: > 100 µM
UACC-62 melanoma
  GI50: 31.8 µM
  TGI: > 100 µM
NCI-H522 lung
  GI50: 39.3 µM
  TGI: > 100 µM
NCI/ADR-RES ovarian
  GI50: > 100 µM
  TGI: > 100 µM
HOP-62 NSCLC
  GI50: 42 µM
  TGI: > 100 µM
IGROV1 ovarian
  GI50: > 100 µM
  TGI: > 100 µM
SNB-75 CNS
  GI50: > 100 µM
  TGI: > 100 µM
NCI-H322M lung
  GI50: > 100 µM
  TGI: > 100 µM
HS 578T breast
  GI50: > 100 µM
  TGI: > 100 µM
EKVX NSCLC
  GI50: > 100 µM
  TGI: > 100 µM
NCI-H226 lung
  GI50: 93.1 µM
  TGI: > 100 µM
LOX IMVI melanoma
  GI50: 88.3 µM
  TGI: > 100 µM
SN12C renal
  GI50: 34.7 µM
  TGI: > 100 µM
A498 renal
  GI50: > 100 µM
  TGI: > 100 µM
HL-60(TB) leukemia
  GI50: 17.3 µM
  TGI: 33.2 µM
SK-MEL-28 melanoma
  GI50: > 100 µM
  TGI: > 100 µM
CAKI-1 renal
  GI50: 55.4 µM
  TGI: > 100 µM
SF-268 CNS
  GI50: 35.6 µM
  TGI: > 100 µM
SF-295 CNS
  GI50: > 100 µM
  TGI: > 100 µM
OVCAR-5 ovarian
  GI50: > 100 µM
  TGI: > 100 µM

## Cn1ncc(C#N)c1-c1ccc2c(c1)CN([C@H](CN)Cc1cccc(F)c1)C2=O
T-47D breast
  GI50: 0.0502 µM
  TGI: 19.5 µM
DU-145 prostate
  GI50: 16.5 µM
  TGI: 44.9 µM
COLO 205 colon
  GI50: 4.91 µM
  TGI: 25.4 µM
BT-549 breast
  GI50: 0.943 µM
  TGI: 17.9 µM
MDA-MB-468 breast
  GI50: 0.0967 µM
  TGI: 3.28 µM
CCRF-CEM leukemia
  GI50: 0.675 µM
  TGI: 14.6 µM
HT29 colon
  GI50: 4.87 µM
  TGI: 94.5 µM
SNB-19 CNS
  GI50: 13.7 µM
  TGI: 67.3 µM
KM12 colon
  GI50: 0.841 µM
  TGI: 20.4 µM
ACHN renal
  GI50: 17.3 µM
  TGI: 93.9 µM
SW-620 colon
  GI50: 27.5 µM
  TGI: 82 µM
OVCAR-4 ovarian
  GI50: 35.7 µM
  TGI: > 100 µM
OVCAR-8 ovarian
  GI50: 24.3 µM
  TGI: > 100 µM
MALME-3M melanoma
  GI50: 1.76 µM
  TGI: 14.8 µM
UO-31 renal
  GI50: 13.4 µM
  TGI: 46.7 µM
MCF7 breast
  GI50: 0.498 µM
  TGI: 16.3 µM
HCT-15 colon
  GI50: 16.3 µM
  TGI: > 100 µM
786-0 renal
  GI50: 0.324 µM
  TGI: 21.2 µM
M14 melanoma
  GI50: 11.2 µM
  TGI: 26.8 µM
HOP-92 NSCLC
  GI50: 6.45 µM
  TGI: 31.4 µM
K-562 leukemia
  GI50: 15.3 µM
  TGI: 43.7 µM
PC-3 prostate
  GI50: 0.436 µM
  TGI: 16.7 µM
TK-10 renal
  GI50: 10.1 µM
  TGI: 42.8 µM
MDA-MB-435 melanoma
  GI50: 15.8 µM
  TGI: 43.3 µM
HCT-116 colon
  GI50: 10.8 µM
  TGI: 23.2 µM
A549 NSCLC
  GI50: 12.2 µM
  TGI: 75.1 µM
RPMI-8226 leukemia
  GI50: 12.9 µM
  TGI: 26.1 µM
UACC-257 melanoma
  GI50: 12.5 µM
  TGI: 31.1 µM
U251 glioblastoma
  GI50: 11.1 µM
  TGI: 68.7 µM
NCI-H23 lung
  GI50: 14.6 µM
  TGI: 34.8 µM
MOLT-4 leukemia
  GI50: 0.129 µM
  TGI: 2.38 µM
SK-OV-3 ovarian
  GI50: 0.534 µM
  TGI: 23.2 µM
HCC-2998 colon
  GI50: 11 µM
  TGI: 47.2 µM
RXF 393 renal
  GI50: 0.433 µM
  TGI: 11.9 µM
SF-539 CNS
  GI50: 0.394 µM
  TGI: 33.4 µM
OVCAR-3 ovarian
  GI50: 11.8 µM
  TGI: 32.4 µM
MDA-MB-231 breast
  GI50: 21.8 µM
  TGI: 74.7 µM
UACC-62 melanoma
  GI50: 4.27 µM
  TGI: 19.8 µM
NCI-H522 lung
  GI50: 13.3 µM
  TGI: 27 µM
NCI/ADR-RES ovarian
  GI50: > 100 µM
  TGI: > 100 µM
HOP-62 NSCLC
  GI50: 23 µM
  TGI: 71.1 µM
IGROV1 ovarian
  GI50: 0.0552 µM
  TGI: 10.4 µM
NCI-H460 NSCLC
  GI50: 0.582 µM
  TGI: 33.3 µM
SNB-75 CNS
  GI50: 0.299 µM
  TGI: 14 µM
NCI-H322M lung
  GI50: 16.9 µM
  TGI: 70.2 µM
HS 578T breast
  GI50: 1.57 µM
  TGI: 19.8 µM
EKVX NSCLC
  GI50: 11.1 µM
  TGI: 40.3 µM
NCI-H226 lung
  GI50: 14.4 µM
  TGI: 39.1 µM
LOX IMVI melanoma
  GI50: 27.6 µM
  TGI: > 100 µM
SN12C renal
  GI50: 17.6 µM
  TGI: 65.9 µM
A498 renal
  GI50: 0.269 µM
  TGI: 16.7 µM
HL-60(TB) leukemia
  GI50: 15.9 µM
  TGI: 29.5 µM
SK-MEL-28 melanoma
  GI50: 3.34 µM
  TGI: 33.4 µM
CAKI-1 renal
  GI50: 5.91 µM
  TGI: 40.8 µM
SF-268 CNS
  GI50: 19.2 µM
  TGI: 58.5 µM
SF-295 CNS
  GI50: 0.668 µM
  TGI: 16.5 µM
SK-MEL-5 melanoma
  GI50: 6.5 µM
  TGI: 20 µM

From PubChem BioAssay (NCI)
